Data published in ChEMBL document CHEMBL1201862, “PubChem BioAssay data set” (2004).
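1) Cells in 96-well plates. 2) Compound, 48 h, 5 concentrations. 3) Linear interpolation between surrounding doses. 4) Unreached endpoint = highest concentration. GI50 marks 50% less growth.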 Active and inactive are the calls of the source. Cut-off read from the data, not from the text of the source: active = GI50 up to about 1.1 µM and inactive = higher.

Tests used:
Test in all cases: NCI anticancer screen, dose series, 48 h
RPMI-8226 = system: RPMI-8226
MOLT-4 = system: MOLT-4
SF-268 = system: SF-268
PC-3 = system: PC-3
TK-10 = system: TK-10
M14 = system: M14
OVCAR-4 = system: OVCAR-4
HOP-92 = system: HOP-92
HL-60 = system: HL-60
SNB-19 = system: SNB-19
A498 = system: A498
A549 = system: A549
SR = system: SR
786-0 = system: 786-0
LOX IMVI = system: LOX IMVI
HCT-116 = system: HCT-116
EKVX = system: EKVX
MDA-N = system: MDA-N
SW-620 = system: SW-620
SN12C = system: SN12C

| SMILES | GI50 (RPMI-8226) | GI50 (MOLT-4) | GI50 (SF-268) | GI50 (PC-3) | GI50 (TK-10) | GI50 (M14) | GI50 (OVCAR-4) | GI50 (HOP-92) | GI50 (HL-60) | GI50 (SNB-19) | GI50 (A498) | GI50 (A549) | GI50 (SR) | GI50 (786-0) | GI50 (LOX IMVI) | GI50 (HCT-116) | GI50 (EKVX) | GI50 (MDA-N) | GI50 (SW-620) | GI50 (SN12C) |
| --- | --- | --- | --- | --- | --- | --- | --- | --- | --- | --- | --- | --- | --- | --- | --- | --- | --- | --- | --- | --- |
| COc1ccc(C(=O)c2ccc(-n3c4ccccc4c4ccc5c(c43)C(=O)C=CC5=O)cc2)cc1 | 0.794 µM (active) | 0.348 µM (active) | 0.647 µM (active) | 1.5 µM (inactive) | 1.43 µM (inactive) | 2.53 µM (inactive) | 2.55 µM (inactive) | 1.99 µM (inactive) | 0.495 µM (active) | 4.19 µM (inactive) | 1.58 µM (inactive) | 3.17 µM (inactive) | 1.32 µM (inactive) | 0.586 µM (active) | 1.25 µM (inactive) | 0.92 µM (active) | 1.86 µM (inactive) | 2.72 µM (inactive) | 1 µM (active) | 1.45 µM (inactive) |
| OC[C@H]1O[C@@H](Oc2cc(O)cc(/C=C/c3ccc(O)cc3)c2)[C@H](O)[C@@H](O)[C@@H]1O [PICEID] | > 100 µM (inactive) | > 100 µM (inactive) |  | > 100 µM (inactive) | > 100 µM (inactive) |  | > 100 µM (inactive) | > 100 µM (inactive) | > 100 µM (inactive) | > 100 µM (inactive) | > 100 µM (inactive) | > 100 µM (inactive) | > 100 µM (inactive) | > 100 µM (inactive) | > 100 µM (inactive) | > 100 µM (inactive) | > 100 µM (inactive) | > 100 µM (inactive) | > 100 µM (inactive) | > 100 µM (inactive) |
| O=C1CSC(c2ccccc2O)N1c1ccc(-n2c(-c3ccccc3)nc3ccccc3c2=O)cc1 (stereo not drawn) | 21.1 µM (inactive) | 13.2 µM (inactive) | 50.1 µM (inactive) | 12.9 µM (inactive) | 48.2 µM (inactive) | 33.7 µM (inactive) | 30.4 µM (inactive) | 20.8 µM (inactive) | 21.6 µM (inactive) | 27.3 µM (inactive) | 29.7 µM (inactive) | 38.4 µM (inactive) | 21.4 µM (inactive) | 20.1 µM (inactive) | 13.1 µM (inactive) | 11 µM (inactive) |  | 28.2 µM (inactive) | 29.7 µM (inactive) | 30.3 µM (inactive) |
| COC(=O)c1c2c(cc3c1CC1(Cc4ccccc4C1)C3)CCC2 | 17.9 µM (inactive) | 17.1 µM (inactive) | 36.6 µM (inactive) | 13.8 µM (inactive) | 61.8 µM (inactive) |  | 37.8 µM (inactive) | 36.9 µM (inactive) | 17.3 µM (inactive) |  | 25.9 µM (inactive) | 28.7 µM (inactive) | 16.5 µM (inactive) | 27.9 µM (inactive) | 15.9 µM (inactive) | 21.7 µM (inactive) | 25.6 µM (inactive) | 6.27 µM (inactive) | 14.2 µM (inactive) | 16.9 µM (inactive) |
| NC(=O)c1cc2ccccc2o/c1=N/c1ccccc1 | > 100 µM (inactive) | > 100 µM (inactive) | > 100 µM (inactive) | > 100 µM (inactive) |  | > 100 µM (inactive) | > 100 µM (inactive) | > 100 µM (inactive) | > 100 µM (inactive) | > 100 µM (inactive) | > 100 µM (inactive) | > 100 µM (inactive) | > 100 µM (inactive) | > 100 µM (inactive) | > 100 µM (inactive) | > 100 µM (inactive) | > 100 µM (inactive) | > 100 µM (inactive) | > 100 µM (inactive) | > 100 µM (inactive) |
| O=C1c2ccccc2NC(c2cc(Cl)cc(Cl)c2O)N1CCc1ccccn1 (stereo not drawn) | 34.8 µM (inactive) |  | > 100 µM (inactive) | 24 µM (inactive) | > 100 µM (inactive) | 64.4 µM (inactive) | 36.8 µM (inactive) | 52.7 µM (inactive) | > 100 µM (inactive) | 88.9 µM (inactive) | > 100 µM (inactive) | 48.6 µM (inactive) | 47.5 µM (inactive) | 60.1 µM (inactive) | > 100 µM (inactive) | 67 µM (inactive) | 62.5 µM (inactive) | 97.9 µM (inactive) | 76.7 µM (inactive) | 69.8 µM (inactive) |
